According to ChEMBL document CHEMBL1909046, “DrugMatrix in vitro pharmacology data”:

How the values were obtained:
[1] = DRUGMATRIX: Glutamate, AMPA radioligand binding (ligand: [3H] AMPA); assay type: cell membranes, Rattus norvegicus, Wistar, Cerebral cortex, Membrane; details: Not Active = under 50% inhibition at 10 µM
[2] = molecular target: 5-hydroxytryptamine receptor 4 (Cavia porcellus, UniProt O70528); assay type: cell membranes, Dunkin-Hartley, Striatum, Membrane; note: in other assays of this panel Not Active means under 50% inhibition at 10 µM
Sequence of 5-hydroxytryptamine receptor 4 (O70528 whole entry): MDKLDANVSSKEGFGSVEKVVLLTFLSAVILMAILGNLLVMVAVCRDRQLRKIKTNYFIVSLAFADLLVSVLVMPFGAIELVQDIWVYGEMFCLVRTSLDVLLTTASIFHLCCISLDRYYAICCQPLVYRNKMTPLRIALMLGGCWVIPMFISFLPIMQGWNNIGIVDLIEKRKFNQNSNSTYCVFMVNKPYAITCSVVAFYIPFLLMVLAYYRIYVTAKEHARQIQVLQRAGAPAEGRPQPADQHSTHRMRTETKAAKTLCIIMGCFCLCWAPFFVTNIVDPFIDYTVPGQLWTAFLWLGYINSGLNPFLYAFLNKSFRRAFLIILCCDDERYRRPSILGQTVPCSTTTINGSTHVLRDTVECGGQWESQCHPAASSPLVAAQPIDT

[3] = molecular target: 5-hydroxytryptamine receptor 2B (Homo sapiens, UniProt P41595); assay type: cell membranes, CHO-K1, Membrane; note: in other assays of this panel Not Active means under 50% inhibition at 10 µM
Sequence of 5-hydroxytryptamine receptor 2B (P41595 whole entry): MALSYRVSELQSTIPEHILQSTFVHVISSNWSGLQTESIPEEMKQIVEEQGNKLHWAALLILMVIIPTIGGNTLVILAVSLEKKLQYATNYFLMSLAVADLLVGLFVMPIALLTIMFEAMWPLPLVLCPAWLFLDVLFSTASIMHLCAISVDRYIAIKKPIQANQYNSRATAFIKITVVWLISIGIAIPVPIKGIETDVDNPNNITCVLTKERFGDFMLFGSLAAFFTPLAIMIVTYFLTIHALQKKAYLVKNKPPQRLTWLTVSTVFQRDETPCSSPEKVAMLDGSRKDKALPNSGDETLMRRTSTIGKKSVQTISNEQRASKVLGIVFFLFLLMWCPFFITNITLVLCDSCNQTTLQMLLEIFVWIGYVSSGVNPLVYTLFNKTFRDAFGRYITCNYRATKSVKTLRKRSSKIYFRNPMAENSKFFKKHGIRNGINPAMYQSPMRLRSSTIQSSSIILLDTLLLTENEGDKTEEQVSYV

[4] = DRUGMATRIX: beta-Lactamase enzyme inhibition (substrate: Nitrocefin); set-up: species or system Bacillus cereus; details: Not Active = under 50% inhibition at 10 µM
[5] = molecular target: T1, Cytochrome P450 2A6 (Homo sapiens, UniProt P11509); details: bti-tn-5b1-4; note: in other assays of this panel Not Active means under 50% inhibition at 10 µM
T1 sequence (P11509 whole entry): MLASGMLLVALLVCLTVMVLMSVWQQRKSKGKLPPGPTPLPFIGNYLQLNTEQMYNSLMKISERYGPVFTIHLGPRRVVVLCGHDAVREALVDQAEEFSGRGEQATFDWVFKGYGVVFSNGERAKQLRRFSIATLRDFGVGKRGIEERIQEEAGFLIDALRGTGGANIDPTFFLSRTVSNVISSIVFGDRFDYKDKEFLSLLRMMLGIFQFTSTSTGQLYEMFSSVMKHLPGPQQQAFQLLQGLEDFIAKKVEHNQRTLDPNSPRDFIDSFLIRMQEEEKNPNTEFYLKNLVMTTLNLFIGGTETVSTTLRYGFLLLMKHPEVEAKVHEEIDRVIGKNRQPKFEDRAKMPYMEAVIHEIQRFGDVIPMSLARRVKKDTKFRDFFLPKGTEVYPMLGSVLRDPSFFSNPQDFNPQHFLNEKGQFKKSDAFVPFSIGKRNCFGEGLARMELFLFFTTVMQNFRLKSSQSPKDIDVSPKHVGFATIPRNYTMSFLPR

[6] = molecular target: Mitogen-activated protein kinase 1 (Homo sapiens, UniProt P28482); assay: DRUGMATRIX: Protein Serine/Threonine Kinase, ERK2 enzyme inhibition (substrate: Myelin Basic Protein); set-up: species or system Escherichia coli; details: Not Active = under 50% inhibition at 10 µM
Sequence of Mitogen-activated protein kinase 1 (P28482 whole entry): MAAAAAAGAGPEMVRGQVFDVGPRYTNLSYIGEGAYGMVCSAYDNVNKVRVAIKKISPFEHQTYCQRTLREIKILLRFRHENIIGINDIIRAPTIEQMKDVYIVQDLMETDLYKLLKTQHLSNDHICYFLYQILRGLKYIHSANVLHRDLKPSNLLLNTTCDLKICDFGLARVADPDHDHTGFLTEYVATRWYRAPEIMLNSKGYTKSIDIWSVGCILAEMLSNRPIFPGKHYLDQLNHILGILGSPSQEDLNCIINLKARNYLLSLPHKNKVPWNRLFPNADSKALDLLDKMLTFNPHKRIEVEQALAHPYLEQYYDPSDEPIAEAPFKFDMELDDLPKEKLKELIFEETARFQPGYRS

Row | Structure (SMILES) | IC50 [1] | Ki [1] | IC50 [2] | IC50 ([3]; cho-k1) | IC50 [4] | Ki [4] | IC50 [5] | Ki [5] | IC50 [6] | IC50 ([3]; read-out: IC50) [nM] | Ki ([3]; read-out: Ki) [nM]
1 | O=C1CN(/N=C/c2ccc([N+](=O)[O-])o2)C(=O)N1 [NITROFURANTOIN] | Not Active | Not Active | Not Active | Not Active | Not Active | Not Active | Not Active | Not Active | Not Active | – | –
2 | C[N+](C)(C)CCOC(N)=O.[Cl-] [CARBACHOL] | Not Active | Not Active | Not Active | Not Active | Not Active | Not Active | Not Active | Not Active | Not Active | – | –
3 | O=C(NCCN1CCOCC1)c1ccc(Cl)cc1 [MOCLOBEMIDE] | Not Active | Not Active | Not Active | Not Active | Not Active | Not Active | Not Active | Not Active | Not Active | – | –
4 | CC12CCC(CC1)C(C)(C)O2 [EUCALYPTOL] | Not Active | Not Active | Not Active | Not Active | Not Active | Not Active | Not Active | Not Active | Not Active | – | –
5 | CCN1C[C@]2(COC)[C@H](O)C[C@H](OC)[C@@]34[C@@H]5C[C@@]6(O)[C@H](OC(=O)c7ccccc7)[C@@H]5[C@@](OC(C)=O)([C@@H]([C@H](OC)[C@H]23)[C@@H]14)[C@@H](O)[C@@H]6OC [ACONITINE] | Not Active | Not Active | Not Active | Not Active | Not Active | Not Active | Not Active | Not Active | Not Active | – | –
6 | OC[C@H]1OC2C3[C@@H](CO)OC(O[C@H]4[C@H](O)[C@@H](O)[C@@H](O[C@H]5[C@H](O)[C@@H](O)[C@@H](O[C@H]6[C@H](O)[C@@H](O)[C@@H](O[C@H]7[C@H](O)[C@@H](O)[C@@H](O[C@H]8[C@H](O)[C@@H](O)[C@@H](O[C@H]9[C@H](O)[C@@H](O)C(OC1[C@H](O)[C@H]2O)O[C@@H]9CO)O[C@@H]8CO)O[C@@H]7CO)O[C@@H]6CO)O[C@@H]5CO)O[C@@H]4CO)[C@H](O)[C@H]3O | Not Active | Not Active | Not Active | Not Active | Not Active | Not Active | Not Active | Not Active | Not Active | – | –
7 | CN(CCOc1ccc(C[C@H](Nc2ccccc2C(=O)c2ccccc2)C(=O)O)cc1)c1ccccn1 | Not Active | Not Active | Not Active | Not Active | Not Active | Not Active | Not Active | Not Active | Not Active | – | –
8 | CCN1CCN(c2cc3c(cc2F)c(=O)c(C(=O)O)cn3C2CC2)CC1 [ENROFLOXACIN] | Not Active | Not Active | Not Active | Not Active | Not Active | Not Active | Not Active | Not Active | Not Active | – | –
9 | NS(=O)(=O)c1cc(C(=O)O)c(NCc2ccco2)cc1Cl [FUROSEMIDE] | Not Active | Not Active | Not Active | Not Active | Not Active | Not Active | Not Active | Not Active | Not Active | – | –
10 | NC(=O)NC(=O)Cc1ccccc1 [PHENACEMIDE] | Not Active | Not Active | Not Active | Not Active | Not Active | Not Active | Not Active | Not Active | Not Active | – | –
11 | Cc1cc(C(C)(C)C)c(O)c(C)c1CC1=NCCN1 [OXYMETAZOLINE] | Not Active | Not Active | Not Active | – | Not Active | Not Active | Not Active | Not Active | Not Active | 3060 | 1940
